According to ChEMBL document CHEMBL1158227, “Effect of Polygonum hydropiper sulfated flavonoids on lens aldose reductase and related enzymes” (J Nat Prod, 1996):
The source made the active and inactive calls. No cut-off for these calls is given here.

Key:
[1] = target: Aldo-keto reductase family 1 member B1 (Sus scrofa, UniProt P80276); assay: Inhibition of pig lens aldose reductase by spectrophotometry
[2] = Inhibition of pig kidney aldehyde reductase by spectrophotometry; set-up: species or system Sus scrofa
[3] = Inhibition of bovine liver NADH oxidase; set-up: species or system Bos taurus
[4] = target: Aldo-keto reductase family 1 member B1 (Sus scrofa) (UniProt P80276); assay: Inhibition of pig lens aldose reductase at 1.8 uM by Lineweaver-Burke plot
[5] = target: Aldo-keto reductase family 1 member B1 (Sus scrofa) (UniProt P80276); assay: Inhibition of pig lens aldose reductase at 0.54 uM by Lineweaver-Burke plot

Row | SMILES | IC50 [1] [µM] | IC50 [2] [µM] | IC50 [3] [µM] | Activity [4] | Activity [5]
1 | COc1cc(-c2oc3cc(O)cc(O)c3c(=O)c2O)ccc1O [ISORHAMNETIN] | > 95 | > 95 | 88.6 | – | –
2 | COc1cc(O)c2c(=O)c(O)c(-c3ccc(O)c(OC)c3)oc2c1 [RHAMNAZIN] | > 91 | > 91 | > 91 | – | –
3 | O=c1c(O)c(-c2ccc(O)c(O)c2)oc2cc(O)cc(O)c12 [QUERCETIN] | 50.1 | > 91 | 65.3 | – | –
4 | COc1ccc(-c2oc3cc(OS(=O)(=O)O)cc(O)c3c(=O)c2O[C@@H]2O[C@H](CO)[C@@H](O)[C@H](O)[C@H]2O)cc1O | 5 | > 50 | > 50 | – | –
5 | O=c1c(O[C@@H]2O[C@H](CO)[C@@H](O)[C@H](O)[C@H]2O)c(-c2ccc(O)c(O)c2)oc2cc(O)cc(O)c12 [ISOQUERCETIN] | 16 | > 64 | > 64 | – | –

Further lines, results first:

Row | IC50 [1] [µM] | IC50 [2] [µM] | IC50 [3] [µM] | Activity [4] | Activity [5] | SMILES
6 | 1.8 | 49.5 | > 54 | Active | Active | COc1cc(-c2oc3cc(OS(=O)(=O)O)cc(O)c3c(=O)c2OS(=O)(=O)O)ccc1O
7 | 50.9 | 55.6 | > 71 | – | – | O=c1c(OS(=O)(=O)O)c(-c2ccc(O)c(O)c2)oc2cc(O)cc(O)c12
8 | 30.1 | 43.5 | > 67 | – | – | COc1cc(O)c2c(=O)c(OS(=O)(=O)O)c(-c3ccc(O)c(OC)c3)oc2c1
9 | 69 | > 69 | > 69 | – | – | COc1cc(-c2oc3cc(O)cc(O)c3c(=O)c2OS(=O)(=O)O)ccc1O [PERSICARIN]
